Here are results for one molecule from patent US11278492B2 (priority 2018, dated 2022).

The structures appear in SMILES notation. Bounds are passed on as bounds.

The conditions of series [1]: oral olanzapine tablets or disintegrating tablets, previously reported; cited from earlier work.
Series [2] in a line: Phase 1 clinical trial, plasma olanzapine pharmacokinetics. Particulars: human, in vivo. As for the experimental part:
Randomization for Periods 1 and 2 was performed for each subject on Day 1.
In Period 1, subjects were assigned to 1 of 3 cohorts (n=12 per cohort). […] Dose administration occurred at Visit 2 on Day 1 (relative to each cohort). Each cohort was scheduled to allow time for Period 2 safety assessments to occur prior to dose escalation in the next cohort period 2 dosing. Subjects remained confined to the study site for 72 hours after dosing. Subjects returned to the study site on Days 5 and 6 (Visits 3 and 4) for follow-up assessments.
In Period 2, subjects returned to the study site after a washout period of at least 14 days. Subjects from each Period 1 cohort received a single dose of INP105 (5, 10 or 15 mg) or placebo in a 9:3 ratio, as outlined in Table 11. Dose administration occurred on Day 15. (Dosing was permitted to occur later than the calendar Day 15 as required for scheduling (up to 2 days) but not before Day 15.) Ascending-dose levels of INP105 (5, 10 or 15 mg) were administered to ascending cohort numbers as follows:
The following pharmacokinetic parameters were determined: Cmax, Tmax, Tlast, AUClast, and t1/2 where possible.

For a further series, the system named is rat. Put plainly: 14-day sub-chronic toxicity in rat with nasal olanzapine delivery. It is filed as in vivo. The note with it: nasal delivery (data not shown).

Consider `Cc1cc2c(s1)Nc1ccccc1N=C2N1CCN(C)CC1` [olanzapine], for which the “time to peak plasma concentration (Tmax)” value in series [1] is 300 to 480 min. The time to peak (Tmax) in series [2] (im, 5 mg) is 19.8 to 21.6 min; in series [2] (inhaled or intranasal), 9.6 to 10.2 min; in series [2] (po, 10 mg) it was 120 min. Also, the Cmax in series [2] (inhaled or intranasal, 15 mg) was ≥ 30 ng/mL. In the series with rat, the “macroscopic or microscopic findings” value is reported as “No macroscopic or microscopic findings”.

As usually defined, the Tmax is the time from dosing to the highest level. A word on the Cmax: it is the peak of the concentration-time curve.
